System: HIV-1 (H9IIIB or NL4-3 virus) replication in MT4-GFP cells
Assay: microbe, parasite or virus in culture
Format: cell-based
Settings: Human immunodeficiency virus 1, NL43, MT4-GFP cells infected with HIV-1; 10% normal human serum; inhibition of reproductive ratio R0, 48-72 h post-infection; read-out: ViKinG IP (nM) with 10% NHS

| Compound | IC50 [nM] |
| --- | --- |
| CN1C(=O)c2c(O)c(=O)c(C(=O)NCc3ccc(F)cc3F)cn2CC12CCOC2 (single isomer, unassigned) [Compound 58] | 5 |

Same assay, conditions: Human immunodeficiency virus 1, NL43, MT4-GFP cells infected with HIV-1; 100% normal human serum; inhibition of reproductive ratio R0, 48-72 h post-infection; read-out: ViKinG IP (nM) with 100% NHS

| Compound | IC50 [nM] |
| --- | --- |
| CCCN1C(=O)c2c(O)c(=O)c(C(=O)NCc3ccc(F)cc3F)cn2CC12CCOC2 (racemic) [Compound 67] | 3600 |
| CCOP(=O)(CCCN1n2cc(C(=O)NCc3ccc(F)cc3F)c(=O)c(O)c2C(=O)N(C)C12CCOC2)OCC (racemic) [Compound 161] | 227 |
| COCCN1C(=O)c2c(O)c(=O)c(C(=O)NCc3ccc(F)cc3F)cn2CC12CCOC2 (single isomer, unassigned) [Compound 49] | 123 |
| COCCN1C(=O)c2c(O)c(=O)c(C(=O)NCc3ccc(F)cc3)cn2CC12CCOC2 (single isomer, unassigned) [Compound 51] | 196 |
| COCCN1C(=O)c2c(O)c(=O)c(C(=O)NCc3ccc(F)c(Cl)c3)cn2CC12CCOC2 (single isomer, unassigned) [Compound 52] | 2000 |
| COCCN1C(=O)c2c(O)c(=O)c(C(=O)NCc3ccc(F)c(C)c3F)cn2CC12CCOC2 (single isomer, unassigned) [Compound 53] | 2570 |
| COCCN1C(=O)c2c(O)c(=O)c(C(=O)NCc3ccc(F)c(Cl)c3F)cn2CC12CCOC2 (single isomer, unassigned) [Compound 54] | 989 |
| CN1C(=O)c2c(O)c(=O)c(C(=O)NCc3ccc(F)c(Cl)c3F)cn2CC12CCOC2 (single isomer, unassigned) [Compound 56] | 100 |
| CN1C(=O)c2c(O)c(=O)c(C(=O)NCc3ccc(F)cc3F)cn2CC12CCOC2 (single isomer, unassigned) [Compound 57] | 36 |
| CN1C(=O)c2c(O)c(=O)c(C(=O)NCc3ccc(F)cc3)cn2CC12CCOC2 (single isomer, unassigned) [Compound 59] | 56 |
| CN1C(=O)c2c(O)c(=O)c(C(=O)NCc3ccc(F)c(Cl)c3)cn2CC12CCOC2 (single isomer, unassigned) [Compound 61] | 119 |
| CN1C(=O)c2c(O)c(=O)c(C(=O)NCc3c(F)cc(F)cc3F)cn2CC12CCOC2 (single isomer, unassigned) [Compound 63] | 17 |
| CN1C(=O)c2c(O)c(=O)c(C(=O)NCc3cccc(Cl)c3F)cn2CC12CCOC2 (single isomer, unassigned) [Compound 65] | 60 |
| COCCN1C(=O)c2c(O)c(=O)c(C(=O)NCc3ccc(F)c(F)c3F)cn2CC12CCOC2 (single isomer, unassigned) [Compound 71] | 350 |
| COCCCN1C(=O)c2c(O)c(=O)c(C(=O)NCc3ccc(F)cc3F)cn2CC12CCOC2 (single isomer, unassigned) [Compound 73] | 30 |
| CCOCCN1C(=O)c2c(O)c(=O)c(C(=O)NCc3ccc(F)cc3F)cn2CC12CCOC2 (single isomer, unassigned) [Compound 77] | 96 |
| COCCN1C(=O)c2c(O)c(=O)c(C(=O)NCc3ccc(F)cc3F)cn2CC12CCCOC2 (single isomer, unassigned) [Compound 83] | 3050 |
| CN1C(=O)c2c(O)c(=O)c(C(=O)NCc3c(F)cc(F)cc3F)cn2N(C)C12CCOC2 (single isomer, unassigned) [Compound 105] | 37 |
| CN1C(=O)c2c(O)c(=O)c(C(=O)NCc3cccc(Cl)c3F)cn2N(C)C12CCOC2 (single isomer, unassigned) [Compound 109] | 229 |
| CN1C(=O)c2c(O)c(=O)c(C(=O)NCc3ccccc3F)cn2N(C)C12CCOC2 (single isomer, unassigned) [Compound 111] | 158 |
| CN1C(=O)c2c(O)c(=O)c(C(=O)NCc3ccc(F)cc3)cn2N(C)C12CCOC2 (single isomer, unassigned) [Compound 113] | 94 |
| CN1C(=O)c2c(O)c(=O)c(C(=O)NCc3c(F)cccc3F)cn2N(C)C12CCOC2 (single isomer, unassigned) [Compound 115] | 54 |

Same assay, conditions: Human immunodeficiency virus 1, NL43, MT4-GFP cells infected with HIV-1; serum free conditions (0% NHS); inhibition of reproductive ratio R0, 48-72 h post-infection; read-out: ViKinG IP (nM) with 0% NHS

| Compound | IC50 [nM] |
| --- | --- |
| CCCN1C(=O)c2c(O)c(=O)c(C(=O)NCc3ccc(F)cc3F)cn2CC12CCOC2 (racemic) [Compound 67] | 6.6 |
| COCCN1C(=O)c2c(O)c(=O)c(C(=O)NCc3ccc(F)cc3F)cn2CC12CCOC2 (single isomer, unassigned) [Compound 49] | 2.9 |
| COCCN1C(=O)c2c(O)c(=O)c(C(=O)NCc3ccc(F)cc3)cn2CC12CCOC2 (single isomer, unassigned) [Compound 51] | 4.8 |
| COCCN1C(=O)c2c(O)c(=O)c(C(=O)NCc3ccc(F)c(Cl)c3)cn2CC12CCOC2 (single isomer, unassigned) [Compound 52] | 4.8 |
| COCCN1C(=O)c2c(O)c(=O)c(C(=O)NCc3ccc(F)c(C)c3F)cn2CC12CCOC2 (single isomer, unassigned) [Compound 53] | 5.3 |
| COCCN1C(=O)c2c(O)c(=O)c(C(=O)NCc3ccc(F)c(Cl)c3F)cn2CC12CCOC2 (single isomer, unassigned) [Compound 54] | 2.3 |
| CN1C(=O)c2c(O)c(=O)c(C(=O)NCc3ccc(F)c(Cl)c3F)cn2CC12CCOC2 (single isomer, unassigned) [Compound 56] | 1.2 |
| CN1C(=O)c2c(O)c(=O)c(C(=O)NCc3ccc(F)cc3F)cn2CC12CCOC2 (single isomer, unassigned) [Compound 57] | 1.6 |
| CN1C(=O)c2c(O)c(=O)c(C(=O)NCc3ccc(F)cc3)cn2CC12CCOC2 (single isomer, unassigned) [Compound 59] | 1.9 |
| CN1C(=O)c2c(O)c(=O)c(C(=O)NCc3ccc(F)c(Cl)c3)cn2CC12CCOC2 (single isomer, unassigned) [Compound 61] | 2.4 |
| CN1C(=O)c2c(O)c(=O)c(C(=O)NCc3c(F)cc(F)cc3F)cn2CC12CCOC2 (single isomer, unassigned) [Compound 63] | 1.9 |
| CN1C(=O)c2c(O)c(=O)c(C(=O)NCc3cccc(Cl)c3F)cn2CC12CCOC2 (single isomer, unassigned) [Compound 65] | 1.5 |
| COCCN1C(=O)c2c(O)c(=O)c(C(=O)NCc3ccc(F)c(F)c3F)cn2CC12CCOC2 (single isomer, unassigned) [Compound 71] | 3.7 |
| COCCCN1C(=O)c2c(O)c(=O)c(C(=O)NCc3ccc(F)cc3F)cn2CC12CCOC2 (single isomer, unassigned) [Compound 73] | 1.8 |
| COCN1C(=O)c2c(O)c(=O)c(C(=O)NCc3ccc(F)cc3F)cn2CC12CCOC2 (single isomer, unassigned) [Compound 75] | 1.8 |
| CCOCCN1C(=O)c2c(O)c(=O)c(C(=O)NCc3ccc(F)cc3F)cn2CC12CCOC2 (single isomer, unassigned) [Compound 77] | 3 |
| COCCN1C(=O)c2c(O)c(=O)c(C(=O)NCc3ccc(F)cc3F)cn2CC12CCCOC2 (single isomer, unassigned) [Compound 83] | 7.8 |
| CN1C(=O)c2c(O)c(=O)c(C(=O)NCc3c(F)cc(F)cc3F)cn2N(C)C12CCOC2 (single isomer, unassigned) [Compound 105] | 0.8 |
| CN1C(=O)c2c(O)c(=O)c(C(=O)NCc3cccc(Cl)c3F)cn2N(C)C12CCOC2 (single isomer, unassigned) [Compound 109] | 0.6 |
| CN1C(=O)c2c(O)c(=O)c(C(=O)NCc3ccccc3F)cn2N(C)C12CCOC2 (single isomer, unassigned) [Compound 111] | 1.6 |
| CN1C(=O)c2c(O)c(=O)c(C(=O)NCc3ccc(F)cc3)cn2N(C)C12CCOC2 (single isomer, unassigned) [Compound 113] | 1.5 |
| CN1C(=O)c2c(O)c(=O)c(C(=O)NCc3c(F)cccc3F)cn2N(C)C12CCOC2 (single isomer, unassigned) [Compound 115] | 1.2 |

Same assay, conditions: MT4-GFP cells infected with HIV-1; 100% normal human serum; inhibition of reproductive ratio R0, 48-72 h post-infection; read-out: ViKinG IP (nM) with 100% NHS

| Compound | IC50 [nM] |
| --- | --- |
| CN1C(=O)c2c(O)c(=O)c(C(=O)NCc3ccc(F)cc3F)cn2CC12CCOC2 (single isomer, unassigned) [Compound 58] | 27 |
| COCN1C(=O)c2c(O)c(=O)c(C(=O)NCc3ccc(F)cc3F)cn2CC12CCOC2 (single isomer, unassigned) [Compound 75] | 559 |

Same assay, conditions: MT4-GFP cells infected with HIV-1; serum free conditions (0% NHS); inhibition of reproductive ratio R0, 48-72 h post-infection; read-out: ViKinG IP (nM) with 0% NHS

| Compound | IC50 [nM] |
| --- | --- |
| CN1C(=O)c2c(O)c(=O)c(C(=O)NCc3ccc(F)cc3F)cn2CC12CCOC2 (single isomer, unassigned) [Compound 58] | 1.9 |

Reference: patent publication US9707234B2, “Spirocyclic hetercycle compounds useful as HIV integrase inhibitors” (MERCK SHARP & DOHME CORP., priority 2013, dated 2017)
